Measured values published in US12251373B2, “Compounds and methods of treating retinal degeneration” (CASE WESTERN RESERVE UNIVERSITY, priority 2017, dated 2025).

Experiments:
[1] = biological target: T1, mouse P23H opsin (Mus musculus, UniProt P15409, P23H); experiment: Immunostain and image-based high-content analysis of P23H mutant opsin in NIH3T3 cells; format: cell-based; details: for effect on cell number: NIH3T3 cells, YC-001 up to 40 μM, 9-cis-retinal higher than 10 μM; for P23H opsin on the plasma membrane: dose-dependent, FIG. 2; for Immunostaining HCS MEM-Total ratio Max (fit) / EC50: ratio of P23H rod opsin fluorescence on plasma membrane to whole cell; for EC50: 1440 min, read-out: Immunostaining HCS MEM-Total ratio EC50
T1 construct: expressed in transfected cells
Text: Three NIH3T3 stable cell lines, NIH3T3-(WT-opsin/GFP), NIH3T3-(P23H-opsin/GFP), and NIH3T3-(GFP) were previously generated which stably express mouse WT opsin and GFP; P23H opsin and GFP; and only GFP, respectively. GFP is expressed separately from opsin in these cell lines. NIH3T3 cells were from ATCC. DNA constructs for generating these stable cell lines were confirmed by Sanger sequencing. Expression of GFP was confirmed by green fluorescence imaging, and expression of P23H and WT opsin were confirmed by immunoblots.
To characterize the effect of active compounds on the localization of P23H mutant opsin in mammalian cells, an image-based assay was used with cells immunostained for WT or P23H mutant opsin protein. Briefly, NIH3T3-(P23H-opsin/GFP) or NIH3T3-(WT-opsin/GFP) cells were seeded at 5,000 cells per well in a 384-well cell-carrier plate (PerkinElmer) and incubated at 37° C. with 5% CO2 for 2 h. Cells were treated with compounds as described for the β-Gal fragment complementation assay and incubated in assay medium for 24 h. The assay medium then was aspirated, and cells were fixed with 4% paraformaldehyde at 20 μL per well for 20 min at RT. Cells were immunostained in one of two ways: cell membranes were either permeabilized with 0.1% Triton X-100 for 15 min or left intact and then were incubated with 10% goat serum (Life Technologies). To detect opsin on the cell plasma membrane only, intact cells were immunostained with 20 μL per well of 20 μg mL^−1 B6-30 anti-rhodopsin antibody that recognizes the N-terminal epitope on the extracellular side of rhodopsin. To detect total opsin, cells were permeabilized with Triton X-100 and immunostained with 50 μg mL^−1 1D4 anti-rhodopsin antibody specific for the C-terminal epitope on the intracellular side of rhodopsin. Opsin immunostaining was visualized by incubating cells with 5 μg mL^−1 Cy3-conjugated goat anti-mouse IgG antibody. Three washes with phosphate-buffered saline (PBS: 10 mM Na2HPO4, 1.8 mM KH2PO4, pH 7.4, 137 mM NaCl, and 2.7 mM KCl) were performed between each step of incubation with antibody. In the last wash with PBS, DAPI was added to each well at 300 nM. Fluorescence images were obtained with the Operetta High Content Imaging System (PerkinElmer) using a 20× long objective. Five fields were taken of each well for cell images using three channels for fluorescence: GFP (100 ms), Cy3 (300 ms), and DAPI (50 ms). Images were analyzed with Acapella software from the Columbus data storage and analysis system (PerkinElmer). For cells immunostained with opsin on the non-permeabilized cell membrane only, an average of total fluorescence intensity of Cy3 per cell was used to quantify opsin in each well of the 384-well plate. For cells immunostained with opsin in permeabilized whole cells, an average ratio of Cy3 intensity on the cell plasma membrane (PM) to that of the entire cell (opsin ratio PM-to-total) was calculated for each well of a 384-well plate to quantify opsin transport to the plasma membrane. The plasma membrane was defined within ±5% of the cell border.

[2] = biological target: T2, P23H opsin (Mus musculus, UniProt P15409, P23H); experiment: Immunoblot of P23H opsin glycosylation in NIH3T3 cells; format: cell-based; set-up: key to Improved glycosylation: n = no; y = yes; details: for Improved glycosylation: P23H opsin; for glycosylation of P23H opsin (in words): immunoblot, PNGaseF, FIG. 3A-D
T2 construct: expressed in transfected cells
Method: NIH3T3-(P23H-opsin/GFP) or NIH3T3-(WT-opsin/GFP) cells were seeded in a 48-well plate (Corning Costar) at 3.2×10^5 cells per well and incubated at 37° C. with 5% CO2 for 2 h. One hundred-μL of assay medium containing a compound at 5× its final concentration was added to each well. The plate was gently shaken for 5 s before further incubation at 37° C. with 5% CO2 for 24 h. The assay medium then was aspirated, and cells were lysed with 100 μL per well PBS containing 0.1% Triton X-100 and complete protease inhibitor cocktail (Roche, Basel, Switzerland) followed by sonication for 3 s. Protein concentrations were determined with the Bradford assay. For PNGase F catalyzed deglycosylation, 3 μL of PNGase F (1,500 U, NEB) was added to the cell lysate and the mixture was incubated at room temperature for 1 h before immunoblotting. For NIH3T3-(P23H-opsin/GFP) cells, 15 μg of total protein were loaded per well onto an SDS-polyacrylamide gel; whereas for NIH3T3-(WT-opsin/GFP) cells, 10 μg of total protein was loaded per well. Opsin protein was immunostained with 0.2 μg mL^−1 horseradish peroxidase-conjugated 1D4 anti-rhodopsin antibody. Band intensities were measured with ImageJ software (http://imagej.nih.gov/ij/; National the Institutes of Health, Bethesda, MD, USA) and normalized to a glyceraldehyde 3-phosphate dehydrogenase (GAPDH) loading control.

[3] = biological target: T3, bovine opsin (Bos taurus, UniProt P02699); experiment: Ligand-opsin binding by Trp fluorescence quenching in ROS disc membranes; details: for EC50: opsin in disc membranes, read-out: EC50 of Trp fluorescence quenching at 330 nm
T3 construct: ROS membranes were isolated from bovine retinas under dim red light; from tissue; host or cells: bovine retina rod outer segment (ROS) membranes, bleached with hydroxylamine
Method: ROS membranes were isolated from bovine retinas under dim red light. To remove membrane associated proteins, ROS membranes were washed with a hypotonic buffer composed of 5 mM bis-tris propane (BTP) and 1 mM EDTA, pH 7.5, followed by gentle homogenization with subsequent centrifugation at 25,000 g for 30 min. This procedure was repeated four times. The final membrane pellet was suspended in 10 mM sodium phosphate buffer, pH 7.0, and 50 mM hydroxylamine to a 3 mg mL^−1 concentration of rhodopsin, placed on ice and illuminated with a 150 Watt bulb for 30 min. Membranes were pelleted by centrifugation at 16,000 g for 5 min and then washed four times with 10 mM sodium phosphate buffer, pH 7.0, and 2% bovine serum albumin followed by 4 washes with 10 mM sodium phosphate buffer, pH 7.0, and 2 washes with 20 mM BTP, pH 7.5, and 100 mM NaCl. The concentration of opsin was measured with a UV-visible spectrophotometer and quantified using the absorption coefficient ε280 nm=81,200 M^−1 cm^−1.
Emission spectra were recorded with a Perkin Elmer L55 Luminescence Spectrophotometer at 20° C. between 300 and 450 nm after excitation at 295 nm, with excitation and emission slit bands set at 5 and 10 nm, respectively. Changes in Trp fluorescence (ΔF/F0; where ΔF is the difference between the initial Trp fluorescence recorded at 330 nm (F0) and Trp fluorescence recorded at 330 nm at a specified YC-001 concentration) were plotted as a function of the ligand concentration. Binding curves were fitted by the Hill function using Origin software for each compound and the EC50 was calculated. All experimental data were corrected for background and self-absorption of excitation and emission light (inner filter effect).

T3 sequence (P02699 whole entry): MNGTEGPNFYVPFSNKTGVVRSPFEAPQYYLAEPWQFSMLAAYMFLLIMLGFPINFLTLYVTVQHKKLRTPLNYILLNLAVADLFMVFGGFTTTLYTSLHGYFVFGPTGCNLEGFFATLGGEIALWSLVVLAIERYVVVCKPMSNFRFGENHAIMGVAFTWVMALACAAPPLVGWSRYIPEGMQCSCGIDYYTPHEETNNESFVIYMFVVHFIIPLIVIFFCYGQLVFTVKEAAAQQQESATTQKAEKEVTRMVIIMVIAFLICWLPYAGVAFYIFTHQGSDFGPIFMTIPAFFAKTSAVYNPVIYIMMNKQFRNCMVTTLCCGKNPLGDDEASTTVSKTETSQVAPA

SMILES | effect on cell number [1] | P23H opsin on the plasma membrane [1] | Immunostaining HCS MEM-Total ratio Max (fit) [1] | EC50 [1] | Improved glycosylation [2] | glycosylation of P23H opsin (in words) [2] | EC50 [3] | effect on Trp fluorescence ([3]; FIG. 3G) | ratio of P23H opsin stain in the ER region to total P23H opsin staining ([1]; FIG. 2M,N)
CC1=C(/C=C/C(C)=C\C=C\C(C)=C\C=O)C(C)(C)CCC1 [9-cis-retinal, reference compound] | killed most cells | increased | 0.019 | 377 nM | y | improvement of glycosylation | 1200 ± 100 nM |  | 
O=C(CCCCCN1C(=O)c2cccc3cccc(c23)C1=O)NO [Scriptaid, reference compound] |  |  | 0.070 | 380 nM | n | does not affect the glycosylation |  | didn't affect Trp fluorescence | 
O=C1OCC(c2ccc(Cl)s2)=C1c1cccs1 [YC-001] | did not affect cell number | increased | 0.030 | 2750 nM | y | improvement of glycosylation | 980 ± 50 nM |  | decreased
